Assay results reported in US11932589B2, “Hydrofluoroolefins and methods of using same” (3M INNOVATIVE PROPERTIES COMPANY, priority 2019, dated 2024).

Experiments:
Type in all cases: physicochemical
[1] = Flash point, small scale closed-cup apparatus (ASTM D-3278-96 e-1); settings: closed-cup ASTM method; no flash point = non-flammable
Text: The acetate was thermally decomposed and the title product separated by fractional distillation. The structure was verified by GC-MS and NMR.

[2] = Largest Soluble Hydrocarbon (LSH) test; settings: hydrofluoroolefin:hydrocarbon about 1:1 to 1:2 by weight, longest hydrocarbon compatible without haze
Protocol: Largest Soluble Hydrocarbon (LSH): The LSH of each hydrofluoroolefin compound was determined by mixing the compound with hydrocarbons of varying molecular weight (CnH2n+2, where n=9 to 24) in a hydrofluoroolefin:hydrocarbon ratio of about 1:1 to 1:2 by weight at room temperature (25° C.) and at 50° C. […] A larger value of n is interpreted herein to indicate a greater ability of the hydrofluoroolefin to clean hydrocarbons.

[3] = Open pan exposure to direct flame

Structure (SMILES) | Flash point [1] | LSH (n in CnH2n+2) ([2]; 25° C.) | LSH (n in CnH2n+2) ([2]; 50° C.) | Burning in an open pan upon exposure to direct flame [3]
C=CC(F)(C(F)C(F)(F)F)C(F)(F)F (stereo not drawn) [Example 1, 3,4,5,5,5-pentafluoro-3-(trifluoromethyl)pent-1-ene] | no flash point | 13 | 14 | –
C=C(C)C1C(F)C(F)(F)C(F)(F)C1(F)F (stereo not drawn) [Example 4, 1,1,2,2,3,3,4-heptafluoro-5-isopropenyl-cyclopentane] | – | 17 | 21 | not observed to burn
